Data from US6599754B2, “Biphasic reaction vessel and methods of use” (University of Rochester, priority 2000, dated 2003).

What was measured:
[1] = Cellulose membrane permeability and partitioning between methylene chloride and water, analysed by LC/MS; assay type: physicochemical; details: for transport across cellulose membrane from organic to aqueous layer: LC/MS vial covered with cellulose membrane, methylene chloride / water; for solvent preference from relative LC/MS intensities of the two layers: methylene chloride in LC/MS vial, cellulose membrane, immersed in deionized water for twenty-four hours
Protocol: One of the key components to this system is the physical separation between the organic chemistry and the biomolecular receptor. As a simple test, starting material was dissolved in methylene chloride at reaction concentration in an LC/MS vial, the vial covered with a cellulose membrane and immersed in glass-distilled, deionized water for twenty-four hours (FIGS. 10A-B). The experiment was analyzed by LC/MS.
Furthermore, enough of the compound is present to detect by LC/MS without having to concentrate the sample.

trypsin = test: Dynamic library selection experiment against trypsin in the biphasic vessel (LC-MS of extracted ions); details: 121 compound library, trypsin 43 μM and 257 μM vs trypsin free control, 18 hours incubation; not verified by binding or inhibition constant
Protocol: Selection experiments: 1,4-diacetoxycyclopent-2-ene, methoxyphenylacetic acid, hydrocinnamic acid, isovaleric acid, 4-pentynoic acid, cyclopentane carboxylic acid, cis-pinonic acid, tetrahydro-2-furoic acid, 2 -phenylpropionic acid, 2-cyclopentene-1-acetic acid, (−)-methoxyacetic acid and triethyl phosphite were weighed in 4 mL vials in the open atmosphere. Palladium tetrakistriphenylphosphine was added to the vial containing triethylphosphite under a nitrogen atmosphere inside a glove box. The reagents were diluted with freshly distilled methylene chloride under the nitrogen atmosphere. Stock solutions of 1,4 -diacetoxycyclopent-2-ene (2 M), methoxyphenylacetic acid (1.8 M), hydrocinnamic acid (1.8 M), isovaleric acid (1.8 M), 4-pentynoic acid (1.8 M), cyclopentane carboxylic acid (1.8 M), cis-pinonic acid (1.8 M), tetrahydro-2-furoic acid (1.8 M), 2-phenylpropionic acid (1.8 M), 2-cyclopentene-1-acetic acid (1.8 M), (−)-methoxyacetic acid (1.8 M) and palladium tetrakistriphenylphosphine (90 mM) with triethyl phosphite (360 mM) were prepared. An aliquot (611 μL) was removed from each of the ten acid stock solutions, added to a pear shaped flask, and evaporated to dryness. […]
Organic and aqueous samples were analyzed by electrospray LC-MS in positive ionization mode using an acetonitrile: water 1% trifluoroacetic acid gradient elution (30% CH3CN—90%). […]

## CC(=O)OC1C=CC(OC(C)=O)C1 (stereo not drawn) [1,4-diacetoxycyclopent-2-ene]
[1]
  transport across cellulose membrane from organic to aqueous layer: sufficient ability to undergo membrane transport
  solvent preference from relative LC/MS intensities of the two layers: organic preference

## CC(=O)OC1C=CC(OC(=O)CC2C=CCC2)C1 (stereo not drawn) [1-acetoxy-4-(2-cyclopentene-1-acetoxy)cyclopent-2-ene]
trypsin
  correlation of amount of compound (ion intensity) with presence of trypsin: strong correlation

## COC(C(=O)OC1C=CC(OC(C)=O)C1)c1ccccc1 (stereo not drawn) [1-acetoxy-4-(methoxyphenylacetoxy)cyclopent-2-ene]
[1]
  transport across cellulose membrane from organic to aqueous layer: present at thirteen minutes in the aqueous layer

## COC(C(=O)O)c1ccccc1 (stereo not drawn) [methoxyphenylacetic acid]
[1]
  transport across cellulose membrane from organic to aqueous layer: sufficient ability to undergo membrane transport
  solvent preference from relative LC/MS intensities of the two layers: aqueous preference
